Several values for one entry are separate records, joined by “and”; a condition that tells them apart may be missing. Equal entries are not always repeated.
Assays:
[1] = refractive index (Na D-line) (dimensionless); conditions: 101.33 kPa, Liquid, Standard Abbe refractometry
[2] = 101.33 kPa, Liquid; for electrical conductivity: Alternating current cell with electrodes; for viscosity: Falling or rolling sphere viscometry; for mass density: Vibrating tube method

CCCC[N+]1(C)CCCC1.N#CN=C=[N-] [1-butyl-1-methylpyrrolidinium dicyanamide]
Conditions | electrical conductivity, [2] | mass density, [2] | refractive index, [1] | viscosity, [2]
238.15 K | 0.0337 S/m | – | – | –
248.15 K | 0.081 S/m and 0.102 S/m | – | – | –
258.15 K | 0.166 S/m and 0.2 S/m | – | – | –
268.15 K | 0.299 S/m and 0.352 S/m | – | – | –
278.15 K | 0.49 S/m and 0.566 S/m | 1029 kg/m3 and 1024.78 kg/m3 | – | 95.5 mPa·s and 80.15 mPa·s
288.15 K | 0.746 S/m and 0.844 S/m | 1023.24 kg/m3 and 1019.06 kg/m3 | 1.4862 | 61.23 mPa·s and 51.72 mPa·s
293.15 K | – | – | 1.4853 | –
298.15 K | 1.07 S/m and 1.19 S/m | 1017.56 kg/m3 and 1013.4 kg/m3 | 1.4847 | 41.78 mPa·s and 35.85 mPa·s
303.15 K | – | – | 1.4842 | –
308.15 K | 1.46 S/m and 1.61 S/m | 1011.95 kg/m3 and 1007.81 kg/m3 | 1.4836 | 29.99 mPa·s and 25.93 mPa·s
313.15 K | – | – | 1.4832 | –
318.15 K | 1.92 S/m and 2.08 S/m | 1006.4 kg/m3 and 1002.27 kg/m3 | 1.4826 | 21.44 mPa·s and 19.43 mPa·s
323.15 K | – | – | 1.4818 | –
328.15 K | 2.44 S/m and 2.63 S/m | 1000.91 kg/m3 and 996.796 kg/m3 | 1.481 | 16.47 mPa·s and 15 mPa·s
333.15 K | – | – | 1.48 | –
338.15 K | 3.02 S/m and 3.23 S/m | 995.474 kg/m3 and 991.368 kg/m3 | 1.479 | 13.08 mPa·s and 11.84 mPa·s
343.15 K | – | – | 1.4779 | –
348.15 K | 3.88 S/m | 985.987 kg/m3 | – | 10.57 mPa·s and 9.634 mPa·s
358.15 K | 4.58 S/m | 980.656 kg/m3 | – | 8.801 mPa·s and 8.017 mPa·s
368.15 K | 5.32 S/m | – | – | 7.467 mPa·s and 6.774 mPa·s
378.15 K | 6.11 S/m | – | – | 6.444 mPa·s and 5.761 mPa·s
388.15 K | 6.93 S/m | – | – | 5.605 mPa·s and 5.001 mPa·s
398.15 K | 7.78 S/m | – | – | 4.956 mPa·s and 4.386 mPa·s
408.15 K | 8.67 S/m | – | – | 3.905 mPa·s
418.15 K | 9.57 S/m | – | – | –
428.15 K | 10.5 S/m | – | – | –
438.15 K | 11.4 S/m | – | – | –
448.15 K | 12.3 S/m | – | – | –

CC[S+](C)CC.O=S(=O)([N-]S(=O)(=O)C(F)(F)F)C(F)(F)F [diethylmethylsulfonium bis[(trifluoromethyl)sulfonyl]imide]
Conditions | electrical conductivity, [2] [S/m] | mass density, [2] [kg/m3] | refractive index, [1] | viscosity, [2] [mPa·s]
258.15 K | 0.0975 | – | – | –
268.15 K | 0.182 | – | – | –
278.15 K | 0.305 | 1520.53 | – | 98.6
283.15 K | – | – | 1.4276 | –
288.15 K | 0.473 | 1510.56 | 1.4262 | 61.05
293.15 K | – | – | 1.4247 | –
298.15 K | 0.688 | 1500.71 | 1.4233 | 40.71
303.15 K | – | – | 1.4219 | –
308.15 K | 0.95 | 1490.96 | 1.4204 | 28.55
313.15 K | – | – | 1.419 | –
318.15 K | 1.26 | 1481.3 | 1.4175 | 20.95
323.15 K | – | – | 1.4161 | –
328.15 K | 1.61 | 1471.73 | 1.4146 | 15.73
333.15 K | – | – | 1.4132 | –
338.15 K | 2 | 1462.25 | 1.4118 | 12.34
343.15 K | – | – | 1.4103 | –
348.15 K | 2.43 | – | – | 9.945
358.15 K | 2.88 | – | – | 8.183
368.15 K | 3.37 | – | – | 6.826
378.15 K | 3.89 | – | – | 5.793
388.15 K | 4.43 | – | – | 4.981
398.15 K | 4.99 | – | – | 4.331
418.15 K | 6.16 | – | – | –
438.15 K | 7.38 | – | – | –
458.15 K | 8.63 | – | – | –

Reference: the NIST ThermoML archive (doi:10.1021/acs.jced.7b00060)
